Counter-ions that a name gives are not always drawn. Like-named read-outs stand apart in the source and are kept apart here.

Experiment [1] concerns human colon cancer cell line HCT116. Nature of the experiment: Cancer cell line study, alamarBlue viability assay. As to conditions: HCT-116, read-out: EC50 (dose required to inhibit cell growth by 50%), HCT116, 72 hours. In kind it is cell-based. A general note: Alamar Blue is a resazurin reagent that responds to reducing activity.
Protocol: The HCT116 cell line was maintained in DMEM GlutaMAX (Invitrogen) supplemented with 10% fetal calf serum.
Cells were grown in a humidified incubator at 37° C. in 5% CO2.
Cells were plated in 96-well plates at a density of 6000 cells/well in 100 μl medium 24 h before addition of drugs. […] To do so, a drugs-dilution plate at twice the screening concentrations was prepared. 72 hours later, alamarBlue (Biosource, Invitrogen) viability assay was performed following manufacturer's protocol. In brief, alamarBlue diluted in media was added to cells to have a 5% solution. Cells were incubated at 37° C., 3 hours and at room temperature, 30 min. Cells with no drug and, cells with no drug and lysed with triton X-100 were used as controls. Fluorescence was monitored at 530 nm excitation and 590 nm emission wavelengths. Results were quantified using Infinite F200 Microplate Reader (Tecan Group, Ltd.).
The target in experiment [2] is Human recombinant monoamine oxidase MAO-B (Homo sapiens (Human), UniProt P27338). Nature of the experiment: Monoamine oxidase assay, kynuramine to 4-hydroxyquinoline fluorescence. The class given is biochemical. The settings on record: Ki (IC50) at Vmax/2; two ranges listed = near the boundary.
Description: (§1) In order to monitor MAO enzymatic activities and/or their inhibition rate by inhibitor(s) of interest, a fluorescent-based (inhibitor)-screening assay was set up. 3-(2-Aminophenyl)-3-oxopropanamine (kynuramine dihydrobromide, Sigma Aldrich), a non fluorescent compound was chosen as a substrate. Kynuramine is a non-specific substrate for both MAOs activities. While undergoing oxidative deamination by MAO activities, kynuramine is converted into 4-hydroxyquinoline (4-HQ), a resulting fluorescent product.
(§2) The monoamine oxidase activity was estimated by measuring the conversion of kynuramine into 4-hydroxyquinoline. Assays were conducted in 96-well black plates with clear bottom (Corning) in a final volume of 100 μL. The assay buffer was 100 mM HEPES, pH 7.5. Each experiment was performed in triplicate within the same experiment.
(§3) The oxidative deamination of the substrate was stopped by adding 50 μL (v/v) of NaOH 2N. […] Arbitrary units were used to measure levels of fluorescence produced in the absence and/or in the presence of inhibitor.
(§4) The Ki (IC50) of each inhibitor was determined at Vmax/2.
In experiment [3] the target is Human recombinant LSD1 protein (Homo sapiens (Human), UniProt O60341). Nature of the experiment: LSD1 inhibition, Amplex Red peroxide/peroxidase-coupled assay with di-methylated H3-K4 peptide. In kind it is biochemical.
Protocol: The demethylase activity was estimated, under aerobic conditions, by measuring the release of H2O2 produced during the catalytic process, using the Amplex® Red peroxide/peroxidase-coupled assay kit (Invitrogen).
Within the experiment, each concentration of inhibitor was tested in triplicate. […] The enzymatic reactions were set up in a 50 mM sodium phosphate, pH 7.4 buffer. At the end of the incubation, Amplex® Red reagent and horseradish peroxidase (HPR) solution were added to the reaction according to the recommendations provided by the supplier (Invitrogen), and left to incubate for 30 extra minutes at room temperature in the dark. A 1 μM H2O2 solution was used as a control of the kit efficiency. The conversion of the Amplex® Red reagent to resorufin due to the presence of H2O2 in the assay, was monitored by fluorescence (excitation at 540 nm, emission at 590 nm) using a microplate reader (Infinite 200, Tecan). Arbitrary units were used to measure level of H2O2 produced in the absence and/or in the presence of inhibitor.
The Ki (IC50) of each inhibitor was estimated at half of the maximum activity.
The target in experiment [4] is Human recombinant monoamine oxidase MAO-A (Homo sapiens (Human), UniProt P21397). Nature of the experiment: Monoamine oxidase assay, kynuramine to 4-hydroxyquinoline fluorescence. In kind it is biochemical. The settings on record: Ki (IC50) at Vmax/2; two ranges listed = near the boundary.
Description: as §1, §2, §3, §4
Where [5] appears, read: Ki (IC50) at half of the maximum activity, two ranges listed = near the boundary, read-out: LSD1 (Ki).

Broadly, the EC50 is the concentration at which the effect is half-maximal. The Ki is a dissociation constant, usually derived from enzyme kinetics or from competition with a known ligand. Regarding `Brc1cccc(COc2ccc([C@H]3C[C@@H]3NCCC3CCCCC3)cc2)c1` (relative stereo) [Example 15, (Trans)-2-(4-(3-bromobenzyloxyl)phenyl)-N-(2-cyclohexylethyl)cyclopropanamine hydrochloride], the EC50 in experiment [1] was around 13300 nM. Moreover, the inhibitory constant (Ki) lay within 100 to 1000 nM in experiment [2], 100 to 1000 nM in experiment [3] and 1000 to 40000 nM in experiment [4].
Take `c1ccc([C@H]2C[C@@H]2NCCC2CCCCCC2)cc1` (relative stereo) [Example 14, (Trans)-N-(2-cycloheptylethyl)-2-phenylcyclopropanamine hydrochloride]: the inhibition constant Ki in experiment [2] fell in the range of 1000 to 40000 nM; in experiment [3] (setting [5]) it was 100 to 1000 nM; in experiment [4] it was 1000 to 40000 nM.
As to `COc1ccc2c(c1)C(N[C@H]1CC1c1ccc(OCc3cccc(Br)c3)cc1)CC2` (stereo in doubt) [Example 16, N-((trans)-2-(4-(3-bromobenzyloxyl)phenyl)cyclopropyl)-6-methoxy-2,3-dihydro-1H-inden-1-amine hydrochloride], the Ki was in the range of 1000 to 40000 nM in experiment [2], 100 to 1000 nM in experiment [3] (setting [5]) and 1000 to 40000 nM in experiment [4].
As to `c1ccc([C@H]2C[C@@H]2NCCCC2CCCCC2)cc1` (relative stereo) [Example 13, (Trans)-N-(3-cyclohexylpropyl)-2-phenylcyclopropanamine hydrochloride], the Ki lay within 1000 to 40000 nM in experiment [2], 100 to 1000 nM in experiment [3] (setting [5]) and 1000 to 40000 nM in experiment [4].
For the compound `COc1ccc2c(c1)C(N[C@H]1CC1c1ccccc1)CC2` (stereo in doubt) [Example 5, 6-methoxy-N-((trans)-2-phenylcyclopropyl)-2,3-dihydro-1H-inden-1-amine], in experiment [4], the inhibition constant (Ki) lay in the range of 1000 to 40000 nM.
`Clc1ccc2c(c1)C(N[C@H]1CC1c1ccccc1)CC2` (stereo in doubt) [Example 6, 6-chloro-N-((trans)-2-phenylcyclopropyl)-2,3-dihydro-1H-inden-1-amine hydrochloride]: the figures for the inhibition constant Ki in experiment [2], in experiment [3] (setting [5]) and in experiment [4] were 1000 to 40000 nM, 100 to 1000 nM and 1000 to 40000 nM, respectively.
As for `COc1ccc2c(c1)C(N[C@H]1CC1c1ccccc1)CCC2` (stereo in doubt) [Example 8, 7-methoxy-N-((trans)-2-phenylcyclopropyl)-1,2,3,4-tetrahydronaphthalen-1-amine], the Ki lay within 1000 to 40000 nM in experiment [2], 100 to 1000 nM in experiment [3] (setting [5]) and 1000 to 40000 nM in experiment [4].
With `COc1ccc2c(c1OC)CCC2N[C@H]1CC1c1ccc(OCc2ccccc2)cc1.Cl` (stereo in doubt) [Example 3, N-((trans)-2-(4-(benzyloxy)phenyl)cyclopropyl)-4,5-dimethoxy-2,3-dihydro-1H-inden-1-amine hydrochloride], the EC50 in experiment [1] is around 37000 nM. Also, the inhibition constant (Ki) in experiment [2] and in experiment [4] was 1000 to 40000 nM throughout. Besides, in experiment [3] (Ki (IC50) at half of the maximum activity, two ranges listed = near the boundary), the “LSD1 (Ki)” value is given as “II, III”.
For the compound `c1ccc(C2C[C@@H]2NC2CCc3ccccc32)cc1` (stereo in doubt) [Example 4, N-((trans)-2-phenylcyclopropyl)-2,3-dihydro-1H-inden-1-amine hydrochloride], the Ki in experiment [4] lay in the range of 1000 to 40000 nM.
For `COc1cccc(-c2ccc(C3C[C@@H]3NC3CCc4ccc(OC)cc43)cc2)c1` (stereo in doubt) [Example 11, 6-methoxy-N-((trans)-2-(3′-methoxybiphenyl-4-yl)cyclopropyl)-2,3-dihydro-1H-inden-1-amine hydrochloride], the inhibition constant Ki in experiment [4] was 1000 to 40000 nM.
As for `COc1ccc2c(c1)C(N[C@H]1CC1c1ccc(OCc3ccccc3)cc1)CC2.Cl` (stereo in doubt) [Example 1, N-((trans)-2-(4-(benzyloxy)phenyl)cyclopropyl)-6-methoxy-2,3-dihydro-1H-inden-1-amine hydrochloride], the “MAO-B (Ki)” value in experiment [2] is recorded as “II, III”. Further, in experiment [4], the inhibitory constant (Ki) is 1000 to 40000 nM.
Turning to `COc1ccc2c(c1)C(N[C@@H]1C[C@H]1c1ccc(OCc3ccccc3)cc1)CCC2` (relative stereo) [Example 20, N-((trans)-2-(4-(benzyloxy)phenyl)cyclopropyl)-7-methoxy-1,2,3,4-tetrahydronaphthalen-1-amine], the Ki was 1000 to 40000 nM in experiment [2], 100 to 1000 nM in experiment [3] (setting [5]) and 1000 to 40000 nM in experiment [4].

The record behind these values is US10202330B2, “Lysine specific demethylase-1 inhibitors and their use” (ORYZON GENOMICS S.A., priority 2010, dated 2019).
